Patent US7138411B2, “Substituted benzopyran derivatives for the treatment of inflammation” (G.D. Searle & Co., priority 1997, dated 2006)
Where a name gives a salt, the structure may show the parent alone.

Q: For `O=C(O)C1=Cc2cc(Cl)c(Oc3ccc(C(=O)O)cc3)cc2OC1C(F)(F)F` (centres unmarked) (as salt: potassium) [Example 206, 7-(4-Carboxyphenoxy)-6-chloro-2-(trifluoromethyl)-2H-1-benzopyran-3-carboxylic acid], which melting point is on record?
A: > 300 °C

Q: With `O=C(O)C1=Cc2cc(Cl)c(Oc3ccc(C(=O)O)cc3Cl)cc2OC1C(F)(F)F` (centres unmarked) (as salt: potassium) [Example 207, 7-(4-Carboxy-2-chloro-phenoxy)-6-chloro-2-(trifluoromethyl)-2H-1-benzopyran-3-carboxylic acid] as the molecule, how does the melting point read?
A: > 300 °C

Q: Which melting point does the source give for `O=C(O)C1=Cc2cc(Cl)c(Oc3cccc(C(=O)O)c3)cc2OC1C(F)(F)F` (centres unmarked) (as salt: potassium) [Example 208, 7-(3-Carboxyphenoxy)-6-chloro-2-(trifluoromethyl)-2H-1-benzopyran-3-carboxylic acid] here?
A: 288.1 to 289.2 °C

Q: With `Cc1ccc2c(c1)OC(C(F)(F)F)C(C(=O)O)=C2` (centres unmarked) [Example 3, 7-Methyl-2-trifluoromethyl-2H-1-benzopyran-3-carboxylic acid] as the molecule, how does the melting point read?
A: 202.1 to 203.1 °C

Q: Which melting point does the source give for `O=C(O)C1=Cc2ccc(C(F)(F)F)cc2OC1C(F)(F)F` (centres unmarked) [Example 4, 2,7-bis(Trifluoromethyl)-2H-1-benzopyran-3-carboxylic acid] here?
A: 190.3 to 193.5 °C

Q: For `O=C(O)C1=Cc2ccc(Br)cc2OC1C(F)(F)F` (centres unmarked) [Example 5, 7-Bromo-2-trifluoromethyl-2H-1-benzopyran-3-carboxylic acid], which melting point is on record?
A: 198.4 to 199.5 °C

Q: For `O=C(O)C1=Cc2ccccc2OC1C(F)(F)F` (centres unmarked) [Example 10, 2-Trifluoromethyl-2H-1-benzopyran-3-carboxylic acid], which melting point is on record?
A: 152.2 to 153.3 °C

Q: With `O=C(O)C1=Cc2cccc(F)c2OC1C(F)(F)F` (centres unmarked) [Example 17, 8-Fluoro-2-trifluoromethyl-2H-1-benzopyran-3-carboxylic acid] as the molecule, how does the melting point read?
A: 197.7 to 210.1 °C

Q: With `O=C(O)C1=Cc2ccc(Cl)c(Cl)c2OC1C(F)(F)F` (centres unmarked) [Example 19, 7,8-Dichloro-2-trifluoromethyl-2H-1-benzopyran-3-carboxylic acid] as the molecule, how does the melting point read?
A: 219.5 to 220.9 °C

Q: Which melting point does the source give for `CC(C)Oc1ccc2c(c1)OC(C(F)(F)F)C(C(=O)O)=C2` (centres unmarked) [Example 20, 7-Isopropyloxy-2-trifluoromethyl-2H-1-benzopyran-3-carboxylic acid] here?
A: 161 to 163 °C

Q: Which melting point does the source give for `CCc1cccc2c1OC(C(F)(F)F)C(C(=O)O)=C2` (centres unmarked) [Example 28, 8-Ethyl-2-trifluoromethyl-2H-1-benzopyran-3-carboxylic acid] here?
A: 185.4 to 186.8 °C

Q: Which melting point does the source give for `Nc1ccc2c(c1)C=C(C(=O)O)C(C(F)(F)F)O2` (centres unmarked) [Example 36, 6-Amino-2-trifluoromethyl-2H-1-benzopyran-3-carboxylic acid] here?
A: 126 to 133 °C

Q: Which melting point does the source give for `O=C(O)C1=Cc2cc([N+](=O)[O-])ccc2OC1C(F)(F)F` (centres unmarked) [Example 37, 6-Nitro-2-trifluoromethyl-2H-1-benzopyran-3-carboxylic acid] here?
A: 187 to 189 °C

Q: Which melting point does the source give for `O=C(O)C1=Cc2cc(F)cc(F)c2OC1C(F)(F)F` (centres unmarked) [Example 41, 6,8-Difluoro-2-trifluoromethyl-2H-1-benzopyran-3-carboxylic acid] here?
A: 207 to 211 °C

Q: Which melting point does the source give for `CCN(CC)c1ccc2c(c1)OC(C(F)(F)F)C(C(=O)O)=C2` (centres unmarked) [Example 48, 7-(N,N-Diethylamino)-2-trifluoromethyl-2H-1-benzopyran-3-carboxylic acid] here?
A: 214.4 to 215.4 °C

Q: For `NS(=O)(=O)c1ccc2c(c1)C=C(C(=O)O)C(C(F)(F)F)O2` (centres unmarked) [Example 51, 6-Aminosulfonyl-2-trifluoromethyl-2H-1-benzopyran-3-carboxylic acid], which melting point is on record?
A: 187.9 to 189.8 °C

Q: For `CCN(CC)S(=O)(=O)c1ccc2c(c1)C=C(C(=O)O)C(C(F)(F)F)O2` (centres unmarked) [Example 58, 6-N,N-Diethylaminosulfonyl-2-trifluoromethyl-2H-1-benzopyran-3-carboxylic acid], which melting point is on record?
A: 238 to 240 °C

Q: For `CC(C)(C)CC(=O)c1ccc2c(c1)C=C(C(=O)O)C(C(F)(F)F)O2` (centres unmarked) [Example 60, 6-(2,2-Dimethylpropylcarbonyl)-2-trifluoromethyl-2H-1-benzopyran-3-carboxylic acid], which melting point is on record?
A: 198 to 200 °C

Q: With `COc1c(Cl)cc2c(c1Cl)OC(C(F)(F)F)C(C(=O)O)=C2` (centres unmarked) [Example 61, 6,8-Dichloro-7-methoxy-2-trifluoromethyl-2H-1-benzopyran-3-carboxylic acid] as the molecule, how does the melting point read?
A: 195.6 to 199.1 °C

Q: For `O=C(O)C1=Cc2ccc3ccccc3c2OC1C(F)(F)F` (centres unmarked) [Example 62, 2-Trifluoromethyl-2H-naphtho[1,2-b]pyran-3-carboxylic acid], which melting point is on record?
A: 245.9 to 248.6 °C

Q: With `O=C(O)C1=Cc2cc(S(=O)(=O)NCc3ccco3)ccc2OC1C(F)(F)F` (centres unmarked) [Example 69, 6-[[(2-Furanylmethyl)amino]sulfonyl]-2-(trifluoromethyl)-2H-1-benzopyran-3-carboxylic acid] as the molecule, how does the melting point read?
A: 170 to 173 °C

Q: For `O=C(O)C1=Cc2cc(S(=O)(=O)Cc3ccccc3)ccc2OC1C(F)(F)F` (centres unmarked) [Example 70, 6-[(Phenylmethyl)sulfonyl]-2-(trifluoromethyl)-2H-1-benzopyran-3-carboxylic acid], which melting point is on record?
A: 172 to 176 °C

Q: With `O=C(O)C1=Cc2cc(S(=O)(=O)NCCc3ccccc3)ccc2OC1C(F)(F)F` (centres unmarked) [Example 71, 6-[[(Phenylethyl)amino]sulfonyl]-2-(trifluoromethyl)-2H-1-benzopyran-3-carboxylic acid] as the molecule, how does the melting point read?
A: 187 to 190 °C

Q: For `O=C(O)C1=Cc2ccc(Cl)cc2OC1C(F)(F)F` (centres unmarked) [Example 72, 7-Chloro-2-trifluoromethyl-2H-1-benzopyran-3-carboxylic acid], which melting point is on record?
A: 175.2 to 177.6 °C

Q: Which melting point does the source give for `O=C(O)C1=Cc2cc(Cl)cc(I)c2OC1C(F)(F)F` (centres unmarked) [Example 73, 6-Chloro-8-iodo-2-(trifluoramethyl)-2H-1-benzopyran-3-carboxylic acid] here?
A: 220 to 223 °C

Q: Which melting point does the source give for `O=Cc1cc(Cl)cc2c1OC(C(F)(F)F)C(C(=O)O)=C2` (centres unmarked) [Example 76, 6-Chloro-8-Formyl-2-(trifluoromethyl)-2H-1-benzopyran-3-carboxylic acid] here?
A: 243.3 to 252.4 °C

Q: For `CC(C)(C)c1cc2c(cc1Br)C=C(C(=O)O)C(C(F)(F)F)O2` (centres unmarked) [Example 77, 6-Bromo-7-(1,1-dimethylethyl)-2-(trifluoromethyl)-2H-1-benzopyran-3-carboxylic acid], which melting point is on record?
A: 198.6 to 199.9 °C

Q: With `O=C(O)C1=Cc2cc(CO)ccc2OC1C(F)(F)F` (centres unmarked) [Example 80, 6-Hydroxymethyl-2-(trifluoromethyl)-2H-1-benzopyran-3-carboxylic acid] as the molecule, how does the melting point read?
A: 177.5 to 180.8 °C

Q: Which melting point does the source give for `CCc1ccc2c(c1)OC(C(F)(F)F)C(C(=O)O)=C2` (centres unmarked) [Example 85, 7-Ethyl-2-trifluoromethyl-2H-1-benzopyran-3-carboxylic acid] here?
A: 167 to 168.6 °C

Q: For `C[S+]([O-])c1ccc2c(c1)C=C(C(=O)O)C(C(F)(F)F)O2` (centres unmarked) [Example 86, 6-(Methylsulfinyl)-2-(trifluoromethyl)-2H-1-benzopyran-3-carboxylic acid], which melting point is on record?
A: 148.3 to 151 °C

Q: With `O=C(O)C1=Cc2c(Cl)ccc(Cl)c2OC1C(F)(F)F` (centres unmarked) [Example 87, 5,8-Dichloro-2-(trifluoromethyl)-2H-1-benzopyran-3-carboxylic acid] as the molecule, how does the melting point read?
A: 205.7 to 207.1 °C

Q: For `CC(C)(C)c1ccc2c(c1)C=C(C(=O)O)C(C(F)(F)F)O2` (centres unmarked) [Example 89, 6-(1,1-Dimethylethyl)-2-(trifluoromethyl)-2H-1-benzopyran-3-carboxylic acid], which melting point is on record?
A: 170.6 to 173.2 °C

Q: Which melting point does the source give for `Cc1ncc(CO)c2c1OC(C(F)(F)F)C(C(=O)O)=C2` (centres unmarked) [Example 90, 5-(Hydroxymethyl)-8-methyl-2-(trifluoromethyl)-2H-pyrano[2,3-c]pyridine-3-carboxylic acid] here?
A: 76.1 to 80.1 °C

Q: For `O=C(O)C1=Cc2cc3c(cc2OC1C(F)(F)F)OCO3` (centres unmarked) [Example 92, 6-(Trifluoromethyl)-6H-1,3-dioxolo[4,5-g][1]benzopyran-7-carboxylic acid], which melting point is on record?
A: 245.8 to 247.8 °C

Q: With `CCOc1cccc2c1OC(C(F)(F)F)C(C(=O)O)=C2` (centres unmarked) [Example 93, 8-Ethoxy-2-trifluoromethyl-2H-1-benzopyran-3-carboxylic acid] as the molecule, how does the melting point read?
A: 159.4 to 160.9 °C

Q: With `O=C(O)C1=Cc2cc(Cl)c(C(F)(F)F)cc2OC1C(F)(F)F` (centres unmarked) [Example 94, 6-Chloro-2,7-bis(trifluoromethyl)-2H-1-benzopyran-3-carboxylic acid] as the molecule, how does the melting point read?
A: 180.9 to 182.4 °C

Q: With `COc1cccc2c1C=C(C(=O)O)C(C(F)(F)F)O2` (centres unmarked) [Example 95, 5-Methoxy-2-(trifluoromethyl)-2H-1-benzopyran-3-carboxylic acid] as the molecule, how does the melting point read?
A: 204.5 to 206.7 °C

Q: Which melting point does the source give for `O=C(O)C1=Cc2cc(Oc3ccc(Cl)cc3)cc(Cl)c2OC1C(F)(F)F` (centres unmarked) [Example 100] here?
A: 227.8 to 228.9 °C

Q: With `CC(C)c1cccc2c1OC(C(F)(F)F)C(C(=O)O)=C2` (centres unmarked) [Example 102, 8-(1-Methylethyl)-2-trifluoromethyl-2H-1-benzopyran-3-carboxylic acid] as the molecule, how does the melting point read?
A: 210.5 to 211.5 °C

Q: For `N#Cc1cc(Cl)cc2c1OC(C(F)(F)F)C(C(=O)O)=C2` (centres unmarked) [Example 107, 6-Chloro-8-cyano-2-(trifluoromethyl)-2H-1-benzopyran-3-carboxylic acid], which melting point is on record?
A: 238.1 to 239.7 °C

Q: With `O=C(O)C1=Cc2cc(Cl)cc(/C=N/O)c2OC1C(F)(F)F` (centres unmarked) [Example 108, 6-Chloro-8-[(hydroxyimino)methyl]-2-(trifluoromethyl)-2H-1-benzopyran-3-carboxylic acid] as the molecule, how does the melting point read?
A: 246.9 to 247.9 °C

Q: With `O=C(O)C1=Cc2cc(Cl)cc(CO)c2OC1C(F)(F)F` (centres unmarked) [Example 109, 6-Chloro-8-(hydroxymethyl)-2-(trifluoramethyl)-2H-1-benzopyran-3-carboxylic acid] as the molecule, how does the melting point read?
A: 174.6 to 178.9 °C

Q: Which melting point does the source give for `O=C(O)C1=Cc2cc(Cl)cc(-c3nc4ccccc4[nH]3)c2OC1C(F)(F)F` (centres unmarked) [Example 110, 8-(1H-Benzimidazol-2-yl)-6-chloro-2-(trifluoromethyl)-2H-1-benzopyran-3-carboxylic acid] here?
A: > 300 °C

Q: With `CC(C)(C)c1ccc2c(c1)OC(C(F)(F)C(F)(F)F)C(C(=O)O)=C2` (centres unmarked) [Example 111, 7-(1,1-Dimethylethyl)-2-(pentafluoroethyl)-2H-1-benzopyran-3-carboxylic acid] as the molecule, how does the melting point read?
A: 171 to 173.5 °C
